Laboratory results published in patent US10155727B2, “Pyrazoles” (Janssen Pharmaceuticals, Inc., priority 2014, dated 2018).
Structures can show the parent of a compound that is named as a salt. Where two headings read alike, the source gives them in different places.

How the values were obtained:
rat NR1/NR2B receptor = rat NR1/NR2B receptor (Rattus norvegicus (Rat), UniProt P35439+Q00960); test: NR2B binding assay: inhibition of specific [3H]-Ifenprodil binding to the rat NR1/NR2B receptor; settings: for inhibition at 1 µM: read-out: % INH @ 1 μM; for inhibition at 10 µM: 10 μM test compound, read-out: % INH @ 10 μM
Sequence of rat NR1/NR2B receptor (Q00960 27-1482, other chains not shown): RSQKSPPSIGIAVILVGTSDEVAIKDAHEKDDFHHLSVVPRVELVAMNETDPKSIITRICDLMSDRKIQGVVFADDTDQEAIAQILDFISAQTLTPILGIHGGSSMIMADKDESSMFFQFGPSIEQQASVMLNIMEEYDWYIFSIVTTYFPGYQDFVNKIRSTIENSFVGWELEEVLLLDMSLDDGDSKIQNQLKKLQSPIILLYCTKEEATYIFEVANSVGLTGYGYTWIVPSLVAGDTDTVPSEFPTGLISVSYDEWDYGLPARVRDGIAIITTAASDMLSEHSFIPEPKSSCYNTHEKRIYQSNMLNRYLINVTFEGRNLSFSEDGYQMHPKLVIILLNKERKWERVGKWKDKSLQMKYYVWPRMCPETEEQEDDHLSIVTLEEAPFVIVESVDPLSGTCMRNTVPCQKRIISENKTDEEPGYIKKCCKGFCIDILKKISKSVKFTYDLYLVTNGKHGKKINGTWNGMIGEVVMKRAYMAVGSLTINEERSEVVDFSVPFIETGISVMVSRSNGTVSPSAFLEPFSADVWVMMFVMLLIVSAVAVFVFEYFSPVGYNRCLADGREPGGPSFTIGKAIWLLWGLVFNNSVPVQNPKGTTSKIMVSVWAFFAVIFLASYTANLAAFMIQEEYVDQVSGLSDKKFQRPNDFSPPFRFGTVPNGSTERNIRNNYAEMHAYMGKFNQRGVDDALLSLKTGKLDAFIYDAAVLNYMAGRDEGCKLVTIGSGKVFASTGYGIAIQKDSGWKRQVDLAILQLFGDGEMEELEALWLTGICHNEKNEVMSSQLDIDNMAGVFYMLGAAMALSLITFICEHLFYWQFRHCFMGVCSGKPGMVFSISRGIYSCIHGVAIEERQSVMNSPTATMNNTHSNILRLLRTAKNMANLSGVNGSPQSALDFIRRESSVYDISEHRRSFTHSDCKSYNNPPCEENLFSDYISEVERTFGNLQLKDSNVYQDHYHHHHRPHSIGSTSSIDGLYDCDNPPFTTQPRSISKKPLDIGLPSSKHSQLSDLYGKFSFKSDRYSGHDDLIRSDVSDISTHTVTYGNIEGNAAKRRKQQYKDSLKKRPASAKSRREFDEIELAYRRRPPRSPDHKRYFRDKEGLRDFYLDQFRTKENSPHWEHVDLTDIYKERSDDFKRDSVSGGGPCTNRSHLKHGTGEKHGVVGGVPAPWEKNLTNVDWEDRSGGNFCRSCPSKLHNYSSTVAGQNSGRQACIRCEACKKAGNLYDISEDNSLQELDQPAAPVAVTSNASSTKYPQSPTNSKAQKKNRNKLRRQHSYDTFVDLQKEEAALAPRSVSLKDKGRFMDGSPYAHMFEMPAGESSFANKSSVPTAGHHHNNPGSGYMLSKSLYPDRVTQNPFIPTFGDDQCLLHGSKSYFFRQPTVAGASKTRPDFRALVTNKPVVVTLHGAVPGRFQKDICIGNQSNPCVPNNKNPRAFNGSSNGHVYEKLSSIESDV
Description: Biological Assays Inhibition of Specific Binding to the Rat NR1/NR2B Receptor
Male Wistar rats (180 to 200 g) were killed by suffocation in a CO2 chamber for two minutes. Whole brains without cerebellum were removed and dissected on ice, placed into closed vials and stored at −70° C.
Membrane fractions were prepared and tested using standard techniques. At the time of the assay, 1 g of the brains was placed into 25 ml of 50 mM Tris/10 mM EDTA buffer, pH 7.1, (25 vol. per g of original tissue) and homogenized for 30 sec at 20000 rpm with an Ultraturrax T25 (Jahnke & Kunkel, IKA-Labortechnik, Staufen, Germany).
The supernatant was discarded and the pellet was homogenized on ice for 30 sec at 20000 rpm with an Ultraturrax and again centrifuged at 48000 g for 30 minutes at 4° C. The resultant pellet was resuspended in 25 ml of 50 mM Tris/10 mM EDTA buffer, homogenized for 30 sec with an Ultraturrax, aliquoted, frozen at −70° C. and stored until use.
After thawing on the day of the assay, a 5 ml membrane aliquot was centrifuged at 48000 g for 30 min at 4° C. The pellet was resuspended in 5 ml of 5 mM Tris/1 mM EDTA buffer, pH 7.4, homogenized for 30 sec at 20000 rpm with an Ultraturrax and centrifuged at 48000 g for 30 min at 4° C. This was repeated twice. The final pellet was homogenized in 5 ml of 5 mM Tris/1 mM EDTA buffer at 4° C. with an Ultraturrax and used for the Ifenprodil-binding assay as described in the following.
Nonspecific binding was estimated in the presence of […] CP101.606. The samples were incubated for 60 min. at 4° C.
The incubation was terminated by filtration of the membrane preparations using Filtermat B (Pharmacia, Uppsala Sweden) and a Micro Cell Harvester (Skatron, Lier, Norway). The Filtermat B had been presoaked with 1% polyethylene imine and carefully washed with 50 mM Tris/HCl-buffer pH 7.7 after the filtration to separate free and bound radioactivity.
The optimal amount of membrane preparation in the assay was determined and optimized for each membrane preparation separately before the test.
For pipetting of the incubation mixture the robot Biomek2000 (Fa. Beckman) was used.
For determination of IC50 values the Hill-plot, 2-parameter-model was used.

hERG receptor = hERG receptor (Homo sapiens (Human), UniProt Q12809); test: HERGBD: inhibition of specific [3H]-Dofetilide binding to the hERG receptor
Sequence of hERG receptor (Q12809 whole entry): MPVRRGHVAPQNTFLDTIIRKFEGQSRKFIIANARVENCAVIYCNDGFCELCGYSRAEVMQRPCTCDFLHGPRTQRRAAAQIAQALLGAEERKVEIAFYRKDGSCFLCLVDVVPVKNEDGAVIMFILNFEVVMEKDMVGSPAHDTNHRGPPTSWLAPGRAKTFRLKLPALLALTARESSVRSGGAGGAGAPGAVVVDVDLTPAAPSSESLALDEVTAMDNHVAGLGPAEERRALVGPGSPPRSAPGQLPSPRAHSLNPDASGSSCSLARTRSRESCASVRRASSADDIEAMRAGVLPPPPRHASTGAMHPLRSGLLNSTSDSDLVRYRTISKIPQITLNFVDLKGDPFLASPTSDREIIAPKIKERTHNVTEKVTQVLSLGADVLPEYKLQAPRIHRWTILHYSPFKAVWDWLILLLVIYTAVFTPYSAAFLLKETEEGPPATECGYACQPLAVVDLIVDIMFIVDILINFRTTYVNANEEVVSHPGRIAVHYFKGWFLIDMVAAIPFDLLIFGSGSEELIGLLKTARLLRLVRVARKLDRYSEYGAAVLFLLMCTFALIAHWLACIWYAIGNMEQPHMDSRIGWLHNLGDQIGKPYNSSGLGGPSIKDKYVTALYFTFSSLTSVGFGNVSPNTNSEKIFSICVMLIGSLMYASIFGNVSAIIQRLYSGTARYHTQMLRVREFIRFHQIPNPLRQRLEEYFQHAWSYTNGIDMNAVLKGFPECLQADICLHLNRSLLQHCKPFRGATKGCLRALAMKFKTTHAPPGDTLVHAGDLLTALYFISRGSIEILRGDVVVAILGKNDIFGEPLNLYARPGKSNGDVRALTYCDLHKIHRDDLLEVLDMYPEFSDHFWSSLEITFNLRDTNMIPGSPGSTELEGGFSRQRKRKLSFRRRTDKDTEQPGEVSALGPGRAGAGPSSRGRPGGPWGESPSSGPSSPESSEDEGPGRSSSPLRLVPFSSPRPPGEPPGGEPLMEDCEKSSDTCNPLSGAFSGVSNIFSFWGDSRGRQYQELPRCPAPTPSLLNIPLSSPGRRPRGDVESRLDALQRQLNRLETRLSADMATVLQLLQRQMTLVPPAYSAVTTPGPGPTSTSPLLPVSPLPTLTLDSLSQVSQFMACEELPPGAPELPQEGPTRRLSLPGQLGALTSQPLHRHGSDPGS
Description: Inhibition of Specific Binding to the hERG—Receptor (HERGBD)
A HEK cell line with stable transfected human ERG receptor was used for the assay. The cells were grown adherently and maintained in DULBECCOS' MEM medium with 10% FBS, 1% non-essential amino acids, 1% Penicillin/Streptomycin and 400 μg/ml G418 (Calbiochem).
For binding assays and membrane preparations the cell culture medium was removed, cells were washed with PBS. Crude membranes for radioligand binding experiments were prepared by scraping the cells off the dishes in ice cold 20 mM HEPES/0.1 mM KCl/pH 7.2. The cell suspension was homogenized on ice (Ultra turrax, 3×20 sec.) and the homogenate was spun for 10 min (1° C., 1000 g, OPTIMA, SW28, 2800 U/min). The supernatant was than centrifuged for 40 min at 100000 g (1° C., OPTIMA, SW28, 23000 U/min). The membrane pellet was re-suspended in 20 mM HEPES/0.1 mM KCl pH 7.2, frozen and stored at −80° C.
After thawing on the day of the assay, the membrane suspension was diluted further with 20 mM HEPES/0.1 mM KCl/pH 7.2.
The incubation mixture of 200 μl contained 1.5 nmol/l 3H-Dofetilide, optimized amount of membrane preparation, 20 mM HEPES/0.1 mM KCl/(pH 7.2) and inhibitor in 1% DMSO. Nonspecific binding was estimated in the presence of […] Dofetilide. The samples were incubated for 90 min. at RT.
Binding was terminated by filtration of the incubated membrane preparations using Filtermat B (Pharmacia, Uppsala Sweden) and a Micro Cell Harvester (Skatron, Lier, Norway). The Filtermat B had been presoaked with 1% polyethylen imine and carefully washed with 0.05 M Tris/HCl-buffer pH=7.7 after the filtration to separate free and bound radioactivity. The filters were counted in a scintillation counter (Betaplate 1205, Berthold, Wildbad, Germany) in order to determine the specific binding of [^3H]-Dofetilide.
The optimal amount of membrane preparation in the assay was determined and optimized for each membrane preparation separately in front of using the membranes in compound testing.
For pipetting of the incubation mixture we routinely use the robot Biomek2000 (Fa. Beckman).

[1] = [3H]-Ifenprodil binding, rat brain membranes
[2] = [3H]-Dofetilide binding, membranes of HEK cells with human ERG receptor, read-out: IC50
[3] = 1 μM test compound, [3H]-Ifenprodil binding, rat brain membranes

SMILES	IC50 (rat NR1/NR2B receptor; [1]) [µM]	IC50 (hERG receptor) [µM]	IC50 (hERG receptor; [2]) [µM]	inhibition at 1 µM (rat NR1/NR2B receptor; [3]) [%]	inhibition at 10 µM (rat NR1/NR2B receptor; [1]) [%]	inhibition at 1 µM (rat NR1/NR2B receptor) [%]
Cn1cc(Cn2cc(-c3ccc(F)c(C(C)(F)F)c3)cn2)cn1 [Example 45, 4-[3-(1,1-difluoroethyl)-4-fluoro-phenyl]-1-[(1-methylpyrazol-4-yl)methyl]pyrazole Succinate]	0.261	67.8				
Fc1cc(-c2cnn(Cc3cc[nH]n3)c2)cc(C(F)F)c1 [Example 47, 4-[3-(difluoromethyl)-5-fluoro-phenyl]-1-(1H-pyrazol-3-ylmethyl) pyrazole Succinate]	0.203	> 100				
Cc1cc(Cn2cc(-c3cccc(C(F)(F)F)c3)cn2)n(C)n1 [Example 48, 1,3-dimethyl-5-[[4-[3-(trifluoromethyl)phenyl]pyrazol-1-yl]methyl]pyrazole]	1.97	37.4				
Cc1cc(-c2cnn(Cc3ccn(C)n3)c2)ccc1F [Example 55, 3-[[4-(4-fluoro-3-methyl-phenyl)pyrazol-1-yl]methyl]-1-methyl-pyrazole Succinate]	0.871	21.1				
Cc1cc(-c2cnn(Cc3cc[nH]n3)c2)ccc1F [Example 56, 4-(4-fluoro-3-methyl-phenyl)-1-(1H-pyrazol-3-ylmethyl)pyrazole]	0.0787	93.8				
Cc1cc(-c2cnn(Cc3ccn(C)n3)c2)ccc1Cl [Example 58, 3-[[4-(4-chloro-3-methyl-phenyl)pyrazol-1-yl]methyl]-1-methyl-pyrazole Succinate]	0.668		12.6			
Cc1cc(Cn2cc(-c3ccc(Cl)c(F)c3)cn2)n(C)n1 [Example 60, 5-[[4-(4-chloro-3-fluoro-phenyl)pyrazol-1-yl]methyl]-1,3-dimethyl-pyrazole]	2.17		31.6			
Cn1ccc(Cn2cc(-c3ccc(F)c(Cl)c3)cn2)n1 [Example 61, 3-[[4-(3-chloro-4-fluoro-phenyl)pyrazol-1-yl]methyl]-1-methyl-pyrazole Succinate]	1.38	24.7				
Cc1cc(Cn2cc(-c3ccc(F)c(Cl)c3)cn2)n(C)n1 [Example 62, 5-[[4-(3-chloro-4-fluoro-phenyl)pyrazol-1-yl]methyl]-1,3-dimethyl-pyrazole]	0.857	41.9				
Cn1ccc(Cn2cc(-c3ccc(Cl)c(Cl)c3)cn2)n1 [Example 63, 3-[[4-(3,4-dichlorophenyl)pyrazol-1-yl]methyl]-1-methyl-pyrazole]	0.612		10.8			
Cc1cc(Cn2cc(-c3ccc(Cl)c(Cl)c3)cn2)n(C)n1 [Example 64, 5-[[4-(3,4-dichlorophenyl)pyrazol-1-yl]methyl]-1,3-dimethyl-pyrazole]	1.1	14.4				
Cn1ccc(Cn2cc(-c3ccc(Cl)cc3Cl)cn2)n1 [Example 66, 3-[[4-(2,4-dichlorophenyl)pyrazol-1-yl]methyl]-1-methyl-pyrazole Succinate]	5.21	8.86				
COc1cc(F)ccc1-c1cnn(Cc2ccn(C)n2)c1 [Example 67, 3-[[4-(4-fluoro-2-methoxy-phenyl)pyrazol-1-yl]methyl]-1-methyl-pyrazole Succinate]			63.3	15.1	16	
COc1cc(F)ccc1-c1cnn(Cc2cc(C)nn2C)c1 [Example 68, 5-[[4-(4-fluoro-2-methoxy-phenyl)pyrazol-1-yl]methyl]-1,3-dimethyl-pyrazole Succinate]			93.6		26.3	8.7
c1cc(-c2cnn(Cc3cc[nH]n3)c2)cc(C2CC2)c1 [Example 69, 4-(3-cyclopropylphenyl)-1-(1H-pyrazol-3-ylmethyl)pyrazole Succinate]	0.831	> 100				
CS(=O)(=O)c1cccc(-c2cnn(Cc3cc[nH]n3)c2)c1 [Example 70, 4-(3-methylsulfonylphenyl)-1-(1H-pyrazol-3-ylmethyl)pyrazole Succinate]	2.69	> 100				
FS(F)(F)(F)(F)c1cccc(-c2cnn(Cc3cc[nH]n3)c2)c1 [Example 72, 1-((1H-pyrazol-3-yl)methyl)-4-(3-(pentafluoro-16-sulfanyl)phenyl)-1H-pyrazole Succinate]	0.0951	44.7				
Cc1n[nH]c(C)c1CCn1cc(-c2ccc(Cl)cc2)cn1 [Example 73, 4-[2-[4-(4-chlorophenyl)pyrazol-1-yl]ethyl]-3,5-dimethyl-1H-pyrazole]	1.16	98				
Cn1nccc1Cn1cc(-c2ccc(Cl)cc2)cn1 [Example 76, 4-(4-Chlorophenyl)-1-[(2-methylpyrazol-3-yl)methyl]pyrazole]	7.35	120				
Clc1ccc(-c2cnn(Cc3cc[nH]n3)c2)cc1 [Example 77, 4-(4-Chlorophenyl)-1-(1H-pyrazol-3-ylmethyl)pyrazole]	1.04	16.9				
Cn1cc(Cn2cc(-c3ccc(Cl)cc3)cn2)cn1 [Example 78, 4-(4-Chlorophenyl)-1-[(1-methylpyrazol-4-yl)methyl]pyrazole]	8.28	> 100				
Cn1nccc1Cn1cc(-c2ccccc2)cn1 [Example 87, 1-Methyl-5-[(4-phenylpyrazol-1-yl)methyl]pyrazole; succinic acid]			> 100	-3.3	28.8	
Cc1n[nH]c(C)c1Cn1cc(-c2ccc(F)c(C(F)F)c2)cn1 [Example 89, 4-[[4-(3-difluoromethyl-4-fluoro-phenyl)pyrazol-1-yl]methyl]-3,5-dimethyl-1H-pyrazole]	0.736	88.2				
Cc1n[nH]c(C)c1Cn1cc(-c2ccc(F)c(C(C)(F)F)c2)cn1 [Example 90]	0.422	84				
CC(F)(F)c1cccc(-c2cnn(Cc3cc[nH]n3)c2)c1 [Example 93, 3-[[4-(3-(1,1-difluoroethyl)-phenyl)pyrazol-1-yl]methyl]-1H-pyrazole Maleate]	0.0252		129			
FC(F)Oc1cccc(-c2cnn(Cc3cc[nH]n3)c2)c1 [Example 94, 3-[[4-(3-(difluoromethoxy)-phenyl)pyrazol-1-yl]methyl]-1H-pyrazole Maleate]	0.279		120			
CCn1cncc1Cn1cc(-c2ccc(Cl)c(C(F)F)c2)cn1 [Example 95, 4-(4-chloro-3-(difluoromethyl)phenyl)-1-((1-ethyl-1H-imidazol-5-yl)methyl)-1H-pyrazole]	0.0635		6.36			
CCn1cncc1Cn1cc(-c2ccc(Cl)cc2)cn1 [Example 98, 4-(4-chlorophenyl)-1-((1-ethyl-1H-imidazol-5-yl)methyl)-1H-pyrazole]	1.06	3.55				
Cn1nccc1-n1cc(-c2ccc(Cl)c(Cl)c2)cn1 [Example 100, 4-(3,4-dichlorophenyl)-2′-methyl-2′H-1,3′-bipyrazole]	3.17		60.3			
